According to US11339157B1, “4H-pyrrolo[3,2-c]pyridin-4-one derivatives” (Bayer Aktiengesellschaft, priority 2017, dated 2022):
Where “and” joins values, the source holds several entries; their conditions need not be identical. Identical values can stand only once. Like-named read-outs stand apart in the source and are kept apart here.

What was measured:
[1] = molecular target: Bub1 (Homo sapiens (Human), UniProt O43683); test: Bub1 kinase assay (TR-FRET, 10 μM ATP); format: biochemical; conditions: mean, read-out: Bub1 kinase assay IC50 [mol/l] (mean)
From the text: Bub1-inhibitory activities of compounds described in the present invention were quantified using a time-resolved fluorescence energy transfer (TR-FRET) kinase assay which measures phosphorylation of the synthetic peptide Biotin-Ahx-[…]—SEQ ID NO: 5 (C-terminus in amide form), purchased from e.g. Biosyntan (Berlin, Germany) by the (recombinant) catalytic domain of human Bub1 (amino acids 704-1085), expressed in Hi5 insect cells with an N-terminal His6-tag (SEQ ID NO: 9) and purified by affinity-(Ni-NTA) and size exclusion chromatography.
In a typical assay 11 different concentrations of each compound (0.1 nM, 0.33 nM, 1.1 nM, 3.8 nM, 13 nM, 44 nM, 0.15 μM, 0.51 μM, 1.7 μM, 5.9 μM and 20 μM) were tested in duplicate within the same microtiter plate. To this end, 100-fold concentrated compound solutions (in DMSO) were previously prepared by serial dilution (1:3.4) of 2 mM stocks in a clear low volume 384-well source microtiter plate (Greiner Bio-One, Frickenhausen, Germany), from which 50 nl of compounds were transferred into a black low volume test microtiter plate from the same supplier. […] The resulting mixture (5 μl final volume) was incubated at 22° C. during 60 min., and the reaction was stopped by the addition of 5 μl of an aqueous EDTA-solution (50 mM EDTA, in 100 mM HEPES pH 7.5 and 0.2% (w/v) bovine serum albumin) which also contained the TR-FRET detection reagents (0.2 μM streptavidin-XL665 [Cisbio Bioassays, Codolet, France] and 1 nM anti-phosho-Serine antibody [Merck Millipore, cat. #35-002] and 0.4 nM LANCE EU-W1024 labeled anti-mouse IgG antibody [Perkin-Elmer, product no. AD0077, alternatively a Terbium-cryptate-labeled anti-mouse IgG antibody from Cisbio Bioassays can be used]). The stopped reaction mixture was further incubated 1 h at 22° C. in order to allow the formation of complexes between peptides and detection reagents. Subsequently, the amount of product was evaluated by measurement of the resonance energy transfer from the Eu-chelate-antibody complex recognizing the Phosphoserine residue to the streptavidin-XL665 bound to the biotin moiety of the peptide. To this end, the fluorescence emissions at 620 nm and 665 nm after excitation at 330-350 nm were measured in a TR-FRET plate reader, e.g. a Rubystar or Pherastar (both from BMG Labtechnologies, Offenburg, Germany) or a Viewlux (Perkin-Elmer) and the ratio of the emissions (665 nm/[…]) was taken as indicator for the amount of phosphorylated substrate. The data were normalised using two sets of control wells for high-(=enzyme reaction without inhibitor=0%=Minimum inhibition) and low-(=all assay components without enzyme=100%=Maximum inhibition) Bub1 activity. IC50 values were calculated by fitting the normalized inhibition data to a 4-parameter logistic equation (Minimum, Maximum, IC50, Hill; Y=Max+(Min−Max)/(1+(X/IC50)Hill)).

[2] = system: Ba/F3-EGFR-WT cells; test: Proliferation assay in BA/F3 (wild type) cells (Cell Titer-Glo); format: cell-based; conditions: Mus musculus
Method in brief: (§1)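 Ba/F3 cells stably expressing retrovirally transduced EGFR-WT or EGFR-insSVD; WT cells plated with 10 ng/mL EGF, insSVD cells without EGF. Compound exposure 48 h at 37° C; viability read by CellTiter-Glo luminescence.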

[3] = system: Ba/F3-EGFR-insSVD cells; test: Proliferation assay in BA/F3 (ins SVD) cells (Cell Titer-Glo); format: cell-based
Method in brief: as §1

[4] = molecular target: EGFR ins SVD (insertion of SVD between D770 and N771) (Homo sapiens, UniProt P00533, INS767SVD); test: Exon 20-Mutant-EGFR(D770_N771insSVD) kinase assay (TR-FRET); format: biochemical
Protocol: Exon 20-Mutant-EGFR(D770_N771insSVD) Kinase Assay
Inhibitory activity of compounds of the present invention against an Epidermal Growth Factor Receptor (EGFR) with an insertion of the amino acids sequence SVD between D770 and N771 was quantified employing the TR-FRET based kinase activity assay as described in the following paragraphs.
For the assay 50 nl of a 100-fold concentrated solution of the test compound in DMSO was pipetted into either a black low volume 384 well microtiter plate or a black 1536 well microtiter plate (both Greiner Bio-One, Frickenhausen, Germany), 2 μl of a solution of EGFR in aqueous assay buffer [50 mM Hepes pH 7.0, 10 mM MgCl2, 1 mM dithiothreitol, 0.5 mM EGTA, 0.3 mM activated sodium ortho-vanadate, 0.005% (w/v) bovine serum albumin, 0.005% (v/v) Tween-20] were added and the mixture was incubated for 15 min at 22° C. to allow pre binding of the test compounds to the enzyme before the start of the kinase reaction. […] The concentration of EGFR was adjusted depending of the activity of the enzyme lot and was chosen appropriate to have the assay in the linear range, typical concentration was 15 pg/μl. The reaction was stopped by the addition of 3 μl of a solution of HTRF detection reagents (83.3 nM streptavidine-XL665 [Cisbio Bioassays, Codolet, France] and 1.67 nM PT66-Tb-Cryptate, a terbium-cryptate labelled anti-phospho-tyrosine antibody from Cisbio Bioassays [instead of the PT66 Tb cryptate PT66 Eu Chelate from Perkin Elmer can also be used]) in an aqueous EDTA-solution (133.3 mM EDTA, 0.2% (w/v) bovine serum albumin in 50 mM HEPES pH 7.5).
(§2) The resulting mixture was incubated 1 h at 22° C. to allow the binding of the biotinylated phosphorylated peptide to the streptavidine-XL665 and the PT66-Tb-Cryptate. Subsequently the amount of phosphorylated substrate was evaluated by measurement of the resonance energy transfer from the PT66-Tb-Cryptate to the streptavidine-XL665.

[5] = molecular target: EGFR ins ASV (insertion of ASV between V769 and D770); test: Exon 20-Mutant-EGFR(V769_D770insASV) kinase assay (TR-FRET); format: biochemical, human; conditions: 2 mM ATP
Protocol: Exon 20-Mutant-EGFR(V769_D770insASV) Kinase Assay
Inhibitory activity of compounds of the present invention against an Epidermal Growth Factor Receptor (EGFR) with an insertion of the amino acids sequence ASV between V769 and D770 was quantified employing the TR-FRET based kinase activity assay as described in the following paragraphs.
For the assay 50 nl of a 100-fold concentrated solution of the test compound in DMSO was pipetted into either a black low volume 384well microtiter plate or a black 1536 well microtiter plate (both Greiner Bio-One, Frickenhausen, Germany), 2 μl of a solution of EGFR in aqueous assay buffer [50 mM Hepes pH 7.0, 10 mM MgCl2, 1 mM dithiothreitol, 0.5 mM EGTA, 0.3 mM activated sodium ortho-vanadate, 0.005% (w/v) bovine serum albumin, 0.005% (v/v) Tween-20] were added and the mixture was incubated for 15 min at 22° C. to allow pre binding of the test compounds to the enzyme before the start of the kinase reaction. […] The concentration of EGFR was adjusted depending of the activity of the enzyme lot and was chosen appropriate to have the assay in the linear range, typical concentration was 2.5 pg/μl. The reaction was stopped by the addition of 3 μl of a solution of HTRF detection reagents (83.3 nM streptavidine-XL665 [Cisbio Bioassays, Codolet, France] and 1.67 nM PT66-Tb-Cryptate, an terbium-cryptate labelled anti-phospho-tyrosine antibody from Cisbio Bioassays [instead of the PT66 Tb cryptate PT66 Eu Chelate from Perkin Elmer can also be used]) in an aqueous EDTA-solution (133.3 mM EDTA, 0.2% (w/v) bovine serum albumin in 50 mM HEPES pH 7.5).
as §2

[6] = BaF3, 48 h, Table 10, plated with 10 ng/mL EGF
[7] = Mus musculus, BaF3, 48 h, Table 10, plated without EGF
[8] = 2 mM ATP, mean, read-out: EGFR ins SVD IC50 [mol/l] (mean)
[9] = Table 9, read-out: mutEGFR (D770_N771insSVD) kinase assay IC50
[10] = BaF3, Table 10, plated with 10 ng/mL EGF, 48 h
[11] = Mus musculus, BaF3, Table 10, plated without EGF, 48 h

Sequence of EGFR ins SVD (insertion of SVD between D770 and N771) (P00533 with tags, fused parts or gaps INS767SVD limits assumed): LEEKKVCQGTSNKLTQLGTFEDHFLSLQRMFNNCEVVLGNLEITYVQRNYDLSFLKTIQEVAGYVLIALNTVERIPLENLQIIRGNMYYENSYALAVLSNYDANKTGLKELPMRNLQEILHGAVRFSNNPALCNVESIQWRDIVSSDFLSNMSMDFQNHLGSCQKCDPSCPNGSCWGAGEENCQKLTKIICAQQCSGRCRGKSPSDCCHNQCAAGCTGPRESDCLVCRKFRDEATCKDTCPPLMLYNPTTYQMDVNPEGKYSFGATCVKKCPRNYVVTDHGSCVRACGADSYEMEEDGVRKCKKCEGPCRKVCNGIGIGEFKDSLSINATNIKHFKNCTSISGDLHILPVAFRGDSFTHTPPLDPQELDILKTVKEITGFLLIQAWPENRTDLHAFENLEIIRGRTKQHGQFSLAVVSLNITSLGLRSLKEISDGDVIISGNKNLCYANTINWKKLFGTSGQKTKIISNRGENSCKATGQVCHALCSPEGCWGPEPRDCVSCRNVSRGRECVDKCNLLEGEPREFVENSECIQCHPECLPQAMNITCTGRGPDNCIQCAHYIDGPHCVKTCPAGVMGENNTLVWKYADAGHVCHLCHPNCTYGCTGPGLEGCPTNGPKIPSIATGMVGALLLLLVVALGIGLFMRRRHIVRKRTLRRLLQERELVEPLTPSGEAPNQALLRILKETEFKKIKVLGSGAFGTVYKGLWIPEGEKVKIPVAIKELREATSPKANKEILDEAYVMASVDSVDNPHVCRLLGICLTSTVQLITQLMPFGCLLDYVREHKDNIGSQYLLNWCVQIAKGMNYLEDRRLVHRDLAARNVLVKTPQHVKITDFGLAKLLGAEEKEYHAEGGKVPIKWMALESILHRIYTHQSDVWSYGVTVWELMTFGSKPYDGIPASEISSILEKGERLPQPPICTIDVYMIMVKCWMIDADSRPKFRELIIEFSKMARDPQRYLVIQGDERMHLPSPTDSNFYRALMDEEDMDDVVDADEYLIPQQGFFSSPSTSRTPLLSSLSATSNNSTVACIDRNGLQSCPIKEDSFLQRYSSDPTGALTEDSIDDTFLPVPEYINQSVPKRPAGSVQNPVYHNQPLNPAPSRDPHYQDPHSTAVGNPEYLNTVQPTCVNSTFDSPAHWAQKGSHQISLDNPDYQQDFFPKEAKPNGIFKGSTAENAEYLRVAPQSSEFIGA
Sequence of Bub1 (O43683 704-1085): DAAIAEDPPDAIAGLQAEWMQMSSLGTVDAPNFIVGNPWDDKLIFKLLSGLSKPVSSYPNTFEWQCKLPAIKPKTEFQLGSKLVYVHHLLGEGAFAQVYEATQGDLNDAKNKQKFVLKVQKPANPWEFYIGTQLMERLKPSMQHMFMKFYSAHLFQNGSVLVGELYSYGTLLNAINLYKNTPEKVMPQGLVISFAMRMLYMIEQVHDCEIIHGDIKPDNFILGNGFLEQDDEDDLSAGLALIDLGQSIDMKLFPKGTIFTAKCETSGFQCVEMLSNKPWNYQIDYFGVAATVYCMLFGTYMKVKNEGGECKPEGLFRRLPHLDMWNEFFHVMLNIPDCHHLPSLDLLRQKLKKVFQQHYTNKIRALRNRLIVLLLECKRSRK

| SMILES | IC50 [1] [nM] | IC50 [2, 6] [nM] | IC50 [3, 7] [nM] | IC50 ([3]; Table 10, plated without EGF, 48 h) | IC50 [4, 8] [nM] | IC50 [4, 9] | EGFR ins ASV IC50 [mol] (mean) [5] | IC50 [2, 10] [nM] | IC50 [3, 11] [nM] |
| --- | --- | --- | --- | --- | --- | --- | --- | --- | --- |
| CC(C)(C)CCOc1cnccc1-c1[nH]c2c(c1Nc1cccc(F)c1)C(=O)NCC2 [Example 2, 2-[3-(3,3-dimethylbutoxy)pyridin-4-yl]-3-[(3-fluorophenyl)amino]-1,5,6,7-tetrahydro-4H-pyrrolo[3,2-c]pyridin-4-one] | 44.1 | 1870 | 6.8 | 7.49 nM and 8.81 nM and 7.48 nM and < 4.78 nM |  |  |  |  |  |
| O=C1NCCc2[nH]c(-c3ccncc3OCc3ccccc3)c(Nc3cccc(F)c3)c21 [Example 3, 2-[3-(benzyloxy)pyridin-4-yl]-3-[(3-fluorophenyl)amino]-1,5,6,7-tetrahydro-4H-pyrrolo[3,2-c]pyridin-4-one] | 47.6 |  |  |  | 0.28 | 0.28 nM | 6.85e-09 | 2160 | 587 |
| CC(C)(O)COc1cnccc1-c1[nH]c2c(c1Nc1cccc(F)c1)C(=O)NCC2 [Example 4, 3-[(3-fluorophenyl)amino]-2-[3-(2-hydroxy-2-methylpropoxy)pyridin-4-yl]-1,5,6,7-tetrahydro-4H-pyrrolo[3,2-c]pyridin-4-one] | 12.5 | 1610 | 329 |  | < 0.072 | < 0.0725 nM | 1.31e-10 |  |  |
| CN(C)CCOc1cnccc1-c1[nH]c2c(c1Nc1cccc(F)c1)C(=O)NCC2 [Example 5, 2-{3-[2-(dimethylamino)ethoxy]pyridin-4-yl}-3-[(3-fluorophenyl)amino]-1,5,6,7-tetrahydro-4H-pyrrolo[3,2-c]pyridin-4-one] | 32.4 |  | 567 |  | 1.56 | 1.56 nM | 4.31e-09 |  |  |
| COC(C)(C)COc1cnccc1-c1[nH]c2c(c1Nc1cccc(F)c1)C(=O)NCC2 [Example 6, 3-[(3-fluorophenyl)amino]-2-[3-(2-methoxy-2-methylpropoxy)pyridin-4-yl]-1,5,6,7-tetrahydro-4H-pyrrolo[3,2-c]pyridin-4-one] | 26.9 | 394 | 63.3 |  | < 0.072 | < 0.0725 nM (2×) and 0.104 nM and 0.0949 nM | 2.12e-10 |  |  |
| CC(C)(COc1cnccc1-c1[nH]c2c(c1Nc1cccc(F)c1)C(=O)NCC2)N1CCOCC1 [Example 7, 3-[(3-fluorophenyl)amino]-2-{3-[2-methyl-2-(morpholin-4-yl)propoxy]pyridin-4-yl}-1,5,6,7-tetrahydro-4H-pyrrolo[3,2-c]pyridin-4-one] | 397 |  |  |  | 0.718 | 1.13 nM |  | 2700 | 462 |
| CN1CCC[C@H]1COc1cnccc1-c1[nH]c2c(c1Nc1cccc(F)c1)C(=O)NCC2 [Example 8, 3-[(3-fluorophenyl)amino]-2-(3-{[(2S)-1-methylpyrrolidin-2-yl]methoxy}pyridin-4-yl)-1,5,6,7-tetrahydro-4H-pyrrolo[3,2-c]pyridin-4-one] | 65.8 |  |  |  | 0.31 | 0.324 nM |  | 623 | 69.5 |
| COCCOc1cnccc1-c1[nH]c2c(c1Nc1cc(F)cc(F)c1)C(=O)NCC2 [Example 9, 3-[(3,5-difluorophenyl)amino]-2-[3-(2-methoxyethoxy)pyridin-4-yl]-1,5,6,7-tetrahydro-4H-pyrrolo[3,2-c]pyridin-4-one] | 27.2 | 376 | 121 |  | < 0.072 | 0.36 nM and 0.388 nM and 0.0776 nM and < 0.0725 nM and 0.1 nM and 0.0962 nM and 0.196 nM and 0.206 nM | 6.15e-09 |  |  |
| COC(C)(C)COc1cnccc1-c1[nH]c2c(c1Nc1cc(F)cc(F)c1)C(=O)NCC2 [Example 10, 3-[(3,5-difluorophenyl)amino]-2-[3-(2-methoxy-2-methylpropoxy)pyridin-4-yl]-1,5,6,7-tetrahydro-4H-pyrrolo[3,2-c]pyridin-4-one] | 12.4 | 352 | 56.9 |  | < 0.072 | < 0.0725 nM (4×) and 0.133 nM |  |  |  |
| COCCOc1cnccc1-c1[nH]c2c(c1Nc1ccccc1OC(F)F)C(=O)NCC2 [Example 11, 3-{[2-(difluoromethoxy)phenyl]amino}-2-[3-(2-methoxyethoxy)pyridin-4-yl]-1,5,6,7-tetrahydro-4H-pyrrolo[3,2-c]pyridin-4-one] | 192 | 1780 | 357 |  | 0.22 | 0.292 nM | 4.25e-09 |  |  |
| COCCOc1cnccc1-c1[nH]c2c(c1Nc1cccc(F)c1Br)C(=O)NCC2 [Example 12, 3-[(2-bromo-3-fluorophenyl)amino]-2-[3-(2-methoxyethoxy)pyridin-4-yl]-1,5,6,7-tetrahydro-4H-pyrrolo[3,2-c]pyridin-4-one] |  |  |  |  | 0.0857 | 0.0857 nM | 2.18e-10 |  |  |
| COCCOc1cnccc1-c1[nH]c2c(c1Nc1ccccc1OC(F)(F)F)C(=O)NCC2 [Example 14, 2-[3-(2-methoxyethoxy)pyridin-4-yl]-3-{[2-(trifluoromethoxy)phenyl]amino}-1,5,6,7-tetrahydro-4H-pyrrolo[3,2-c]pyridin-4-one] | 704 | 2530 | 1040 |  |  |  |  |  |  |
| COCCOc1cnccc1-c1[nH]c2c(c1Nc1cccc(F)c1OC)C(=O)NCC2 [Example 16, 3-[(3-fluoro-2-methoxyphenyl)amino]-2-[3-(2-methoxyethoxy)pyridin-4-yl]-1,5,6,7-tetrahydro-4H-pyrrolo[3,2-c]pyridin-4-one] | 145 | 454 | 24.1 |  |  |  |  |  |  |
| COCCOc1cnccc1-c1[nH]c2c(c1Nc1cccc(F)c1OC(F)F)C(=O)NCC2 [Example 18, 3-{[2-(difluoromethoxy)-3-fluorophenyl]amino}-2-[3-(2-methoxyethoxy)pyridin-4-yl]-1,5,6,7-tetrahydro-4H-pyrrolo[3,2-c]pyridin-4-one] | 375 |  |  |  |  |  |  |  |  |
| COCCOc1cnccc1-c1[nH]c2c(c1Nc1cccc(F)c1CC(F)F)C(=O)NCC2 [Example 22, 3-{[2-(2,2-difluoroethyl)-3-fluorophenyl]amino}-2-[3-(2-methoxyethoxy)pyridin-4-yl]-1,5,6,7-tetrahydro-4H-pyrrolo[3,2-c]pyridin-4-one] | 111 | 1560 | 116 |  |  |  |  |  |  |
| COC(C)(C)COc1cnccc1-c1[nH]c2c(c1Nc1cccc(F)c1O)C(=O)NCC2 [Example 24, 3-[(3-fluoro-2-hydroxyphenyl)amino]-2-[3-(2-methoxy-2-methylpropoxy)pyridin-4-yl]-1,5,6,7-tetrahydro-4H-pyrrolo[3,2-c]pyridin-4-one] |  |  |  |  | 0.541 | 0.541 nM | 6.34e-10 |  |  |
| CCOc1c(F)cccc1Nc1c(-c2ccncc2OCCOC)[nH]c2c1C(=O)NCC2 [Example 25, 3-[(2-ethoxy-3-fluorophenyl)amino]-2-[3-(2-methoxyethoxy)pyridin-4-yl]-1,5,6,7-tetrahydro-4H-pyrrolo[3,2-c]pyridin-4-one] | 228 | 2280 |  |  |  |  |  |  |  |
| COc1c(Nc2c(-c3ccncc3OCC(C)(C)OC)[nH]c3c2C(=O)NCC3)ccc(F)c1F [Example 29, 3-[(3,4-difluoro-2-methoxyphenyl)amino]-2-[3-(2-methoxy-2-methylpropoxy)pyridin-4-yl]-1,5,6,7-tetrahydro-4H-pyrrolo[3,2-c]pyridin-4-one] | 201 | 2360 | 229 |  |  |  |  |  |  |
